Results published in patent US8703438B2, “Ligand binding stabilization method for drug target identification” (The Regents of the University of California, priority 2008, dated 2014).

What was measured:
Tif1 A64Q point mutant = Tif1 A64Q point mutant (Saccharomyces cerevisiae, UniProt P10081, A64Q); experiment: DARTS target mutation analysis; assay type: binding, yeast; conditions: FIG. 4C
Source text: This enrichment was confirmed by western blotting using the TAP-tagged (Ghaemmaghami et al. (2003) Nature 425: 737-741) eIF4A yeast strain (FIG. 10). […] While the alanine is conserved throughout fungi and animals, plants have a glutamine at this position and the bulkier side chain is hypothesized to protect plant eIF4A from resveratrol inhibition by minimizing self binding.

[1] = target: T1, in vitro translated firefly luciferase (Photinus pyralis, UniProt P08659); experiment: Effect on firefly luciferase reaction in luciferase assay kits; assay type: biochemical
T1 construct: made in house
T1 sequence (P08659 whole entry): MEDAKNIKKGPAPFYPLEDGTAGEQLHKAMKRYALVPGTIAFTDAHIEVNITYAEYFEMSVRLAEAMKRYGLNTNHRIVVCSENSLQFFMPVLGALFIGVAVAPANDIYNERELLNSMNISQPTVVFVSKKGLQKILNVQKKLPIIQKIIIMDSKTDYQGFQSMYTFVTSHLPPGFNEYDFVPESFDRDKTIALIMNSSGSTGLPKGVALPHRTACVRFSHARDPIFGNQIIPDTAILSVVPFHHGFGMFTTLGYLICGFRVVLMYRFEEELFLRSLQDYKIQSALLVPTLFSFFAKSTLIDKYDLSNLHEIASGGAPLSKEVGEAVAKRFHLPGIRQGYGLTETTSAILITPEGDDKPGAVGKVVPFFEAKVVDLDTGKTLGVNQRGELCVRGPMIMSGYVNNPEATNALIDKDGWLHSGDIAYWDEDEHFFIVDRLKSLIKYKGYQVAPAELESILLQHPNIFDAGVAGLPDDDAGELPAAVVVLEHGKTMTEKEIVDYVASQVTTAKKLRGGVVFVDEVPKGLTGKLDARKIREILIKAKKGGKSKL
Source text: Our data in FIG. 4D were based on the Dual-Glo kit, in which the luciferase reaction is not affected by resveratrol. Also, there was no resveratrol added to the in vitro luciferase assay reactions in FIG. 4D. Rather, resveratrol was used to treat cells and washed away before the cells were lysed for luciferase assay.

C. elegans N2 worms = experiment: C. elegans lifespan analysis; assay type: in vivo; conditions: resveratrol 50 μM
Source text: FIG. 4A: Chemical structure of resveratrol. FIG. 4B: Yeast cell lysates and human HeLa cell lysates were each treated with resveratrol in vitro followed by thermolysin digestion and silver staining. Protected bands of similar size were detected. FIG. 4C: Resveratrol protects TAP-tagged eIF4A, but not an unrelated Htb2, protein from proteolysis. Arrow: protein protected from subtilisin proteolysis (H. sapiens (SEQ ID NO:1), M. musculus (SEQ ID NO:2), X. laevis (SEQ ID NO:3), D. melanogaster (SEQ ID NO:4), C. elegans (SEQ ID NO:5), S. purpuratus (SEQ ID NO:6), C. reinhardtii (SEQ ID NO:7), A. thaliana (SEQ ID NO:8), H. andersenii (SEQ ID NO:9), S. cerevisiae (SEQ ID NO:10)). FIG. 4D: Resveratrol inhibits eIF4A-dependent translation in HEK 293 cells as assayed by bicistronic translation reporters. […] FIG. 4E: eIF4A is required for longevity in resveratrol-treated animals. Resveratrol (50 μM) lengthens the lifespan of wild-type N2 worms fed control (gfp) RNAi (green), but not worms fed eIF4A (inf-1) RNAi (red) or daf-16 RNAi (blue). gfp(RNAi), mVeh=19 (n=74), mRSV=20 (n=78), P=0.0006***; inf-1(RNAi), mVeh=26 (n=76), mRSV=24 (n=79), P=0.4687; daf-16(RNAi), mVeh=17 (n=78), mRSV=17 (n=76), P=0.3305. m, mean lifespan (days of adulthood); n, number of animals tested.
N2 wild-type strains were maintained at 20° C. on standard nematode growth medium (NGM) seeded with E. coli OP50 as described (Brenner (1974) Genetics 77: 71-94). E. coli RNAi strains were obtained from Open Biosystems; clones were verified by sequencing. To make NGM plates containing resveratrol or vehicle, 240 μl of a solution containing 2.5 mM resveratrol (or the equivalent amount of ethanol, for vehicle control), 20% DMSO, 20% ethanol, 10% phosphate buffered saline (PBS), and 50% ddH20 were spread on top of the NGM plate, making a 50 μM final concentration of resveratrol in the plate. Resveratrol was dissolved in 95% ethanol and stored in 4° C.
Lifespan analysis was conducted with N2 worms at 20° C. Eggs were added to NGM plates containing OP50. […]

Sequence of Tif1 A64Q point mutant (P10081 whole entry A64Q): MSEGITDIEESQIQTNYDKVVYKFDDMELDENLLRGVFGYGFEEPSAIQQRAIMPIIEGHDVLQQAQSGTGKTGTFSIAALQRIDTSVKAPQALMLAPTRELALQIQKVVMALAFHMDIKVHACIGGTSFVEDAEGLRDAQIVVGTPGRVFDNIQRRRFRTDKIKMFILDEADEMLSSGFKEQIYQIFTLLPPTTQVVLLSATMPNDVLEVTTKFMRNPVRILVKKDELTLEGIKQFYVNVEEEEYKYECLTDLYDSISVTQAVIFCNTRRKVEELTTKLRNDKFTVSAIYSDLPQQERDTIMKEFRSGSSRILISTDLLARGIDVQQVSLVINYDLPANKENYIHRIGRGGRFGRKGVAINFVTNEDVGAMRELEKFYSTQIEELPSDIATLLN

For `Oc1ccc(C=Cc2cc(O)cc(O)c2)cc1` [resveratrol], the “effect of Tif1 A64Q point mutation on resveratrol protection” value (Tif1 A64Q point mutant) was “confers resistance to resveratrol”, the firefly luciferase readout ([1]; Bright-Glo kit (Promega #E2610)) was “significantly decreased” and the firefly luciferase readout ([1]; Dual-Glo kit (Promega #E2940)) was “little or no inhibition”. For the same compound, the mean lifespan (C. elegans N2 worms; N2 worms fed daf-16(RNAi), vehicle 17, P=0.3305) was 17 days of adulthood, the mean lifespan (C. elegans N2 worms; N2 worms fed gfp(RNAi) control, vehicle 19, P=0.0006) was 20 days of adulthood and the mean lifespan (C. elegans N2 worms; N2 worms fed inf-1(RNAi) (eIF4A), vehicle 26, P=0.4687) was 24 days of adulthood.
